According to patent US20210196598A1, “Specific Co-Aggregation Inhibition by Arginine” (priority 2018, published 2021):

Columns and labels:
[1] = test system: co-aggregates of S. gordonii (commensal) and A. naeslundii (commensal); assay: FlowCam coaggregation, commensal:commensal pair S. gordonii and A. naeslundii; format: cell-based, Streptococcus gordonii and Actinomyces naeslundii
Description: (§1) Coaggregation was studied using FlowCam® technology (Fluid Imaging Technologies, ME, USA). S. gordonii DL1, A. oris MG1, P. gingivalis W83, and F. nucleatum ATCC 25586 were harvested from batch cultures and washed once in coaggregation buffer by centrifuging for 10 mins at 3,000 g. After centrifugation, the pellets were re-suspended in coaggregation buffer and adjusted to an optical density of 1.0 (±0.1) at 600 nm. The cell suspensions were then subject to a 5-fold dilution in coaggregation buffer. Each pair was then loaded onto the FlowCam™ device and allowed to sit for one minute. The pairs were subsequently pumped through the device until they reached the flow cell. Data collection was initiated once the Olympus UPlanFLN 10X/0.30 objective was focused on the flowing particles. The FlowCam™ was run for 45 seconds at a flow rate of 0.3 ml/min and images were acquired at 10 frames per second. Flash duration was set to 8 μSec and the particle sizes were measured using area based diameter (ABD) with a particle filter set to detect between 5 and 10000 μm. The same procedure was tested for each pair while suspended in coaggregation buffer supplemented with various concentrations of arginine or lysine.
(§2) The following three pairs of co-aggregates were co-cultured and treated with either buffer (untreated; control) 86 mM arginine or 100 mM arginine:
1) Commensal oral bacteria Streptococcus gordonii and Actinomyces naeslundii,
(§3) The reduction in aggregate sizes was greater in each pair of commensal/pathogenic bacteria, i.e. the co-aggregates of A. naeslundii (commensal) and P. gingivalis (pathogenic) and the co-aggregates of S. gordonii (commensal) and F. nucleatum (pathogenic) compared to the commensal/commensal co-aggregates of S. gordonii (commensal) and A. naeslundii (commensal).
(§4) In FIG. 2, the data from the treated co-aggregates was normalized against untreated co-aggregates. FIG. 2 reflects a selective action of arginine against specific co-aggregates. […]

[2] = test system: co-aggregates of A. naeslundii (commensal) and P. gingivalis (pathogenic); assay: FlowCam coaggregation, commensal:pathogenic pair A. naeslundii and P. gingivalis; format: cell-based, Actinomyces naeslundii and Porphyromonas gingivalis
Description: as §1, §2
2) Commensal oral bacterium A. naeslundii and pathogenic bacterium Porphyromonas gingivalis,
as §3, §4

[3] = test system: co-aggregates of S. gordonii (commensal) and F. nucleatum (pathogenic); assay: FlowCam coaggregation, commensal:pathogenic pair S. gordonii and F. nucleatum; format: cell-based, Streptococcus gordonii and Fusobacterium nucleatum
Description: as §1, §2
3) Commensal oral bacterium S. gordonii and pathogenic bacterium Fusobacterium nucleatum.
as §3, §4

[4] = test system: S. gordonii and A. oris co-aggregate pair; assay: Visual Coaggregation Score, S. gordonii + A. oris; format: cell-based; conditions: for Visual Coaggregation Score (0-4): post-treatment
Description: (§5) The following six pairs of co-aggregates were co-cultured and treated with either 86 mM arginine, 400 mM arginine, 86 mM lysine or 400 mM lysine:
1) Commensal oral bacteria S. gordonii and A. oris;
(§6) Bacterial aggregation was scored visually using a Visual Coaggregation Score (0-4) scoring system.

[5] = test system: S. gordonii and V. atypica co-aggregate pair; assay: Visual Coaggregation Score, S. gordonii + V. atypica; format: cell-based; conditions: post-treatment
Description: as §5
2) Commensal oral bacterium S. gordonii and pathogenic oral bacterium V. atypica;
as §6

[6] = test system: S. gordonii and F. nucleatum co-aggregate pair; assay: Visual Coaggregation Score, S. gordonii + F. nucleatum; format: cell-based; conditions: post-treatment
Description: as §5
3) Commensal oral bacterium S. gordonii and pathogenic oral bacterium F. nucleatum;
as §6

[7] = test system: A. oris and V. atypica co-aggregate pair; assay: Visual Coaggregation Score, A. oris + V. atypica; format: cell-based; conditions: post-treatment
Description: as §5
4) Commensal oral bacterium A. oris and pathogenic oral bacterium V. atypica;
as §6

[8] = test system: A. oris and F. nucleatum co-aggregate pair; assay: Visual Coaggregation Score, A. oris + F. nucleatum; format: cell-based; conditions: post-treatment
Description: as §5
5) Commensal oral bacterium A. oris and pathogenic oral bacterium F. nucleatum; and
as §6

[9] = test system: A. oris and P. gingivalis co-aggregate pair; assay: Visual Coaggregation Score, A. oris + P. gingivalis; format: cell-based; conditions: post-treatment
Description: as §5
6) Commensal oral bacterium A. oris and pathogenic oral bacterium P. gingivalis.
as §6

[10] = test system: commensal/pathogenic co-aggregate pairs; assay: Visual coaggregation scoring, summary in words over the co-aggregate pairs of Table 1; format: cell-based
[11] = test system: oral biofilms (plaque); assay: Destabilization of oral biofilms (plaque); format: cell-based; conditions: biofilms treated with the amino acid
[12] = 86 mM and 100 mM arginine, FIG. 1
[13] = Streptococcus gordonii, read-out: inhibition of co-aggregation, normalized against untreated co-aggregates
[14] = Actinomyces naeslundii, read-out: inhibition of co-aggregation, normalized against untreated co-aggregates

Row | SMILES | Visual Coaggregation Score (0-4) ([4]; 86 mM amino acid) | Visual Coaggregation Score (0-4) ([4]; 400 mM amino acid) | Visual Coaggregation Score (0-4) ([5]; 86 mM amino acid) | Visual Coaggregation Score (0-4) ([5]; 400 mM amino acid) | Visual Coaggregation Score (0-4) ([6]; 86 mM amino acid) | Visual Coaggregation Score (0-4) ([6]; 400 mM amino acid) | Visual Coaggregation Score (0-4) ([7]; 86 mM amino acid) | Visual Coaggregation Score (0-4) ([7]; 400 mM amino acid) | Visual Coaggregation Score (0-4) ([8]; 86 mM amino acid) | Visual Coaggregation Score (0-4) ([8]; 400 mM amino acid) | Visual Coaggregation Score (0-4) ([9]; 86 mM amino acid) | Visual Coaggregation Score (0-4) ([9]; 400 mM amino acid) | effect on oral biofilms / total biofilm biomass, in words [11] | other results
1 | N=C(N)NCCC[C@H](N)C(=O)O [arginine] | 4 | 3-4 | 2-3 | 2 | 0-1 | 0-1 | 0-1 | 0 | 0-1 | 0 | 0-1 | 0 | reductions in total biofilm biomass | bacterial aggregate sizes (area based diameter), in words [1, 12]: dose dependent reduction; inhibition at 86000 µM [1, 13]: 11%; inhibition at 100000 µM [1, 13]: 14%; bacterial aggregate sizes (area based diameter), in words [2, 12]: dose dependent reduction; inhibition at 86000 µM [2, 14]: 22%; inhibition at 100000 µM [2, 14]: 64%; bacterial aggregate sizes (area based diameter), in words [3, 12]: dose dependent reduction; inhibition at 86000 µM [3, 13]: 25%; inhibition at 100000 µM [3, 13]: 37%; inhibitory effect on aggregation, in words ([4]; 86 mM and 100 mM arginine (so in the source), commensal/commensal pair): none to little inhibitory effect; inhibition of aggregation, in words ([10]; 86 mM and 100 mM arginine (so in the source), each of the five commensal/pathogenic pairs): selectively inhibited aggregation
2 | NCCCC[C@H](N)C(=O)O [lysine, reference compound] | 4 | 4 | 4 | 3 | 3-4 | 3 | 3 | 0-1 | 3-4 | 2-3 | 1-2 | 0-1 | No similar disruptive effects | anti-coadhesion functionality, in words ([10]; lysine in any of the corresponding pairs): Little to no anti-coadhesion functionality
